pIC50: −log10 of the molar value.
How the values were obtained:
Type in all cases: cell-based
[1] = biological target: T1, Broad substrate specificity ATP-binding cassette transporter ABCG2 (Homo sapiens, UniProt Q9UNQ0); test: Inhibition of ABCG2 expressed in human MCF7/Topo cells by Hoechst microplate assay
T1 sequence (Q9UNQ0 whole entry): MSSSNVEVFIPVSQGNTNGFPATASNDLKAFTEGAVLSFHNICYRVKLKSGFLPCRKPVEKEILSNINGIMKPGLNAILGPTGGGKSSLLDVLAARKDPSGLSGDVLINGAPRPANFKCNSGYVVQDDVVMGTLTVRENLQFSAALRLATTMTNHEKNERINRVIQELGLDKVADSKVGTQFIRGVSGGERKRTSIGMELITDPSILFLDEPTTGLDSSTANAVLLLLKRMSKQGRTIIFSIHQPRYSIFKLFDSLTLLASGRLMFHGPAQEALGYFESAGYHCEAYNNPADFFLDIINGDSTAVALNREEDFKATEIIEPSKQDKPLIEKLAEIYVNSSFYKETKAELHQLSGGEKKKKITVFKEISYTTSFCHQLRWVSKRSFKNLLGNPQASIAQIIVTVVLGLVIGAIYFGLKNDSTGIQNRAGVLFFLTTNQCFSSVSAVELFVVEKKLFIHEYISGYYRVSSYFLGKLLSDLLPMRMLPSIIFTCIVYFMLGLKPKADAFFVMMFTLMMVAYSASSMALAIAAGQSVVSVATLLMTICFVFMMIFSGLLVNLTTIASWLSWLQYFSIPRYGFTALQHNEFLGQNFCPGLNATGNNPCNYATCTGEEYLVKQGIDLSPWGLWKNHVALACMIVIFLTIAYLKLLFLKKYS

[2] = biological target: ATP-dependent translocase ABCB1 (Homo sapiens, UniProt P08183); test: Inhibition of ABCB1 expressed in Kb-V1 cells after 10 mins by calcein-AM assay
Sequence of ATP-dependent translocase ABCB1 (P08183 whole entry): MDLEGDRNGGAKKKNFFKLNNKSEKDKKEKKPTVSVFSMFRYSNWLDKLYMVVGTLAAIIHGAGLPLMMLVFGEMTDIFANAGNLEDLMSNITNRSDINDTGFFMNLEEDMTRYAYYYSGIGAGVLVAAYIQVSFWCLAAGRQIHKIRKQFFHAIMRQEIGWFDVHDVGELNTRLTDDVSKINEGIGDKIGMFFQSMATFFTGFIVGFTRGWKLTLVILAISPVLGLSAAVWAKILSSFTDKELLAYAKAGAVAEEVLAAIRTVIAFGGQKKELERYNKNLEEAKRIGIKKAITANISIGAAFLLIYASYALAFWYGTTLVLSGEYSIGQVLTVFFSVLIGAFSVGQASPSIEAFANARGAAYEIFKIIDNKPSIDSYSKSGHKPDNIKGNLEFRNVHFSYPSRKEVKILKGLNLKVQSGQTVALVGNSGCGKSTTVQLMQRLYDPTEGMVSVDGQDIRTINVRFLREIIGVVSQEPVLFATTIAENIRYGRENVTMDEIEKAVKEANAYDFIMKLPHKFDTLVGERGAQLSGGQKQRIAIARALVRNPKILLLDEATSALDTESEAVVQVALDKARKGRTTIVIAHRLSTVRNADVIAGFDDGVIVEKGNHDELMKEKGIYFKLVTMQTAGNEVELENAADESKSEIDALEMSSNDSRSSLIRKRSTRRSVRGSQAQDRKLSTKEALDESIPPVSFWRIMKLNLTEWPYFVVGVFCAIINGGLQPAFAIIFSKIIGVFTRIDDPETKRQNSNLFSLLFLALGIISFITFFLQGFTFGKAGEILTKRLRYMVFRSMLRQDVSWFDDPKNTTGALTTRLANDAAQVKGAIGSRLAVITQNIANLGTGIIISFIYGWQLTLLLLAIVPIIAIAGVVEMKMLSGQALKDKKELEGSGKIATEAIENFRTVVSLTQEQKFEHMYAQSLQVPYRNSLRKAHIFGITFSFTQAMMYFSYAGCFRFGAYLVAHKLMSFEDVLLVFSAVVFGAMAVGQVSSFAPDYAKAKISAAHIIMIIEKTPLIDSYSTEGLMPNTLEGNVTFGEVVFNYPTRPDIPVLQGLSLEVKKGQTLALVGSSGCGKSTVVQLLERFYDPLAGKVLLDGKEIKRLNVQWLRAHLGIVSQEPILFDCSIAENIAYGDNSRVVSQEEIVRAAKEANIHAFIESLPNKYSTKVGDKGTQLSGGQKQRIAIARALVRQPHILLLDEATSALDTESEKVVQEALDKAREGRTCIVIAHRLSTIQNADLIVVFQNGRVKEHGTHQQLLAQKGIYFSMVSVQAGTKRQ

[3] = biological target: T2, ABCG2 (Homo sapiens, UniProt Q9UNQ0); test: Inhibition of ABCG2 expressed in human MCF7/Topo cells assessed as maximal inhibitory effect at IC50 concentration by Hoechst microplate assay; conditions: MCF7/Topo cells expressing ABCG2, probe Hoechst dye, read-out: INH
T2 sequence (Q9UNQ0 whole entry): T1 sequence (Q9UNQ0 whole entry)

| pIC50 [1] | pIC50 [2] | Emax [3] | SMILES |
| --- | --- | --- | --- |
| 7.23 | < 4.54 |  | COC(=O)c1ccc(C(=O)Nc2ccc(CCN3CCc4cc(OC)c(OC)cc4C3)cc2)cc1NC(=O)c1ccc2ccccc2n1 |
| < 4.30 | < 4.30 |  | COCCOCCOCCOc1cc2c(cc1OC)CN(CCc1ccc(NC(=O)c3ccc(C(=O)O)c(NC(=O)c4ccc5ncccc5c4)c3)cc1)CC2 |
| 6.29 | < 4.30 | 61% | COCCOCCOCCOc1cc2c(cc1OC)CCN(CCc1ccc(NC(=O)c3ccc(C(=O)OC)c(NC(=O)c4ccc5ncccc5c4)c3)cc1)C2 |
| 6.41 | < 4.00 | 41% | COCCOCCOCCOc1cc2c(cc1OC)CN(CCc1ccc(NC(=O)c3ccc(C(=O)OC)c(NC(=O)c4ccc5ncccc5c4)c3)cc1)CC2 |
| < 4.00 | < 6.00 |  | COc1cc2c(cc1OC)CN(CCc1ccc(NC(=O)c3ccc(C(=O)O)c(NC(=O)c4ccc5ncccc5c4)c3)cc1)CC2 |
| 6.89 | < 4.30 |  | COCCOCCOCCOc1cc2c(cc1OC)CCN(CCc1ccc(NC(=O)c3ccc(C(=O)OC)c(NC(=O)c4ccc5ccccc5n4)c3)cc1)C2 |
| < 4.30 | < 4.00 |  | COCCOCCOCCOc1cc2c(cc1OC)CN(CCc1ccc(NC(=O)c3ccc(C(=O)O)c(NC(=O)c4ccc5ccccc5n4)c3)cc1)CC2 |
| 5.21 | < 4.00 |  | COCCOCCOCCOc1cc2c(cc1OC)CCN(CCc1ccc(NC(=O)c3ccc(C(=O)O)c(NC(=O)c4ccc5ccccc5n4)c3)cc1)C2 |
| 6.74 | < 4.30 |  | COCCOCCOCCOc1cc2c(cc1OC)CN(CCc1ccc(NC(=O)c3ccc(C(=O)OC)c(NC(=O)c4ccc5ccccc5n4)c3)cc1)CC2 |
| < 5.30 | < 4.30 |  | COc1cc2c(cc1OC)CN(CCc1ccc(NC(=O)c3ccc(C(=O)O)c(NC(=O)c4ccc5ccccc5n4)c3)cc1)CC2 |
| < 4.30 | < 4.30 |  | COCCOCCOCCOc1cc2c(cc1OC)CCN(CCc1ccc(NC(=O)c3ccc(C(=O)O)c(NC(=O)c4ccc5ncccc5c4)c3)cc1)C2 |
| 6.76 | < 5.00 | 55% | COC(=O)c1ccc(C(=O)Nc2ccc(CCN3CCc4cc(OC)c(OC)cc4C3)cc2)cc1NC(=O)c1ccc2ncccc2c1 |
